Results from PubChem BioAssay (NCI).
“And” between values parts separate entries of the source, which are not always exact repeats. Identical values can stand only once.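 Step 1: Grow cells in 96-well plates. Step 2: Expose to compound for 48 hours at 5 concentrations. Step 3: Interpolate endpoints linearly; if unreached, use highest concentration. At the GI50, growth is halved. TGI is the concentration that stops growth completely.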

What was measured:
Test in all cases: NCI tumour cell line growth inhibition, 48 h
DLD-1 colon = test system: DLD-1 colon
DMS 273 small cell lung = test system: DMS 273 small cell lung
LXFL 529 NSCLC = test system: LXFL 529 NSCLC
M19-MEL melanoma = test system: M19-MEL melanoma
SNB-78 CNS = test system: SNB-78 CNS
HOP-18 NSCLC = test system: HOP-18 NSCLC
XF 498 CNS = test system: XF 498 CNS
MDA-N = test system: MDA-N
RXF-631 renal = test system: RXF-631 renal
P388 leukemia = test system: P388 leukemia
P388/ADR leukemia = test system: P388/ADR leukemia
SN12K1 renal = test system: SN12K1 renal

SMILES | TGI (DLD-1 colon) [µM] | TGI (DMS 273 small cell lung) [µM] | TGI (LXFL 529 NSCLC) [µM] | TGI (M19-MEL melanoma) [µM] | TGI (SNB-78 CNS) | TGI (HOP-18 NSCLC) [µM] | TGI (XF 498 CNS) [µM] | TGI (MDA-N) [µM] | further results
Cc1cc(N(CCC#N)CCC#N)ccc1/C=C(\NC(=O)/C=C/c1ccccc1)C(=O)Nc1ccccc1Cl | > 100 | > 100 | > 100 | > 100 | > 100 µM | – | – | – | –
COc1cc2c(oc(=O)c3c4occc4cc(OC)c23)c2cccc(O)c12 | > 100 | > 100 | > 100 | > 100 | > 100 µM | > 100 | > 100 | – | –
Cc1cc(C)c2nc3c(c(C(O)C4CCCCN4)c2c1)CC/C3=C\c1ccc(Cl)cc1 (stereo unspecified) | – | – | – | – | – | – | – | > 100 | –
COC(=O)C1=NC(=S)NC(c2ccccc2)C1c1nc2ccccc2o1 (stereo unspecified) | > 50 | – | > 50 | > 50 | > 50 µM | > 50 | > 50 | – | –
CN(C)CCCN1c2ccccc2Sc2ccc(C(F)(F)F)cc21 | 31.9 | 29.4 | > 100 | 32.3 | 33.9 µM | – | – | 26.3 | –
COC(=O)C(=O)C(C(=O)C(=O)Nc1ccc([N+](=O)[O-])cc1)c1nc2ccccc2[nH]c1=O (stereo unspecified) | > 100 | > 100 | > 100 | > 100 | – | > 100 | > 100 | – | TGI (RXF-631 renal): > 100 µM
CC1NOC(=O)C1N=Nc1cccc(Cl)c1 (stereo unspecified) | > 100 | > 100 | > 100 | 91.7 | > 100 µM | > 100 | 72 | – | –
COc1ccc(/C=C/C(=N\NC(=O)c2ccccc2)c2sc(Nc3ccc([N+](=O)[O-])cc3)nc2C)cc1OC | 28.8 | 54.6 | 24.3 | 70.6 | 61.9 µM | 85 | 29.5 | – | –
O=[N+]([O-])c1ccccc1N=Nc1c(O)[nH]c2c(Cl)cccc12 | – | – | – | – | – | – | – | > 100 | –
Cc1c(Cl)ccc2c1NC(=O)C2(O)CC(=O)c1ccc(Cl)cc1 (stereo unspecified) | > 100 | > 100 | > 53.3 | 26.9 | > 100 µM | > 100 | – | – | TGI (RXF-631 renal): > 100 µM
CCOc1ccc(C2=NN(CC)C(=O)C(C3C(=O)N(c4ccccc4)N=C3C)C2)cc1 (stereo unspecified) | > 100 | > 100 | > 100 | > 100 | > 100 µM | > 100 | > 100 | – | –
Cc1cc(NCCCCCCCNc2cc(C)nc3cc(N)ccc23)c2ccc(N)cc2n1 | > 100 | – | > 100 | > 100 | > 100 µM | – | 66.2 | – | –
COC(=O)Cc1cc(=O)n2c3ccccc3n(C)c2c1C#N | > 100 | > 100 | – | > 100 | > 100 µM | – | > 100 | – | –
C[N+](C)(C)CC1CCC(C[N+](C)(C)C)C1=NO (stereo unspecified) | > 100 | – | > 100 | > 100 | > 100 µM | > 100 | > 100 | – | –
CCCC1C[C@H]2CCCCN2[C@H]2CCCN12 (stereo partly specified) | > 83.6 | > 100 | > 100 | – | > 100 µM | > 100 | > 100 | – | TGI (RXF-631 renal): > 100 µM
N=C(N)c1ccc2oc3ccc(C(=N)N)cc3c(=O)c2c1 | – | – | – | – | – | – | – | > 100 | –
FC(F)(F)c1ccccc1C1SCc2nc3ccccc3n21 (stereo unspecified) | > 100 | > 100 | > 100 | > 100 | > 100 µM | > 100 | – | – | –
CC(C)(O)C1COC2=C1C(=O)c1ccccc1C2=O (stereo unspecified) | – | – | – | – | – | – | – | 33.3 | –
COC(=O)c1c(C(=O)OC)c(-c2ccccc2)n(-c2ccccc2)c(=O)c1-c1ccccc1 | > 100 | > 100 | > 100 | > 100 | > 100 µM | – | 68.8 | – | –
O=C(N/C(=C\c1ccc([N+](=O)[O-])cc1)c1nc2ccccc2s1)c1ccccc1 | 58.7 | > 100 | 42.9 | 53.9 | > 100 µM | 61.9 | > 100 | – | –

SMILES | TGI (DLD-1 colon) [µM] | TGI (DMS 273 small cell lung) [µM] | TGI (LXFL 529 NSCLC) [µM] | TGI (M19-MEL melanoma) [µM] | TGI (SNB-78 CNS) | TGI (HOP-18 NSCLC) [µM] | TGI (XF 498 CNS) [µM] | TGI (MDA-N) [µM] | further results
CCCCCCCCCCCC/C=C\CC[C@@H](O)[C@H](O)CC[C@H](O)[C@@H]1CC[C@@H](CCCCCCCC2=C[C@H](C)OC2=O)O1 | – | – | – | – | – | – | – | 23.4 | GI50 (MDA-N): 6.76 µM
COC(=O)CC1(O)C(=O)OCc2c1cc1n(c2=O)Cc2c-1nc1ccccc1c2OC (stereo unspecified) | > 100 | 3.35 | > 100 | > 100 | > 100 µM | > 100 | 40 | – | TGI (RXF-631 renal): > 100 µM
COC1C(OC(=O)c2ccc(C)[nH]2)C(O)C(Oc2ccc3c(O)c(NC(=O)c4ccc(O)c(CC=C(C)C)c4)c(=O)oc3c2Cl)OC1(C)C (stereo unspecified) | – | – | – | – | – | – | – | > 100 | –
CC(C)(Oc1ccc(-c2cccc3ccccc23)cc1)C(=O)O | – | – | – | – | – | – | – | > 100 | –
O=c1[nH]c2cc(Cl)ccc2nc1/C(=N\Nc1ccccc1)C(O)c1ccc2c(c1)OCO2 (stereo unspecified) | – | – | – | – | – | – | – | > 100 | –
C=CCNC(=S)NNC(=O)c1c(C)nc2sccn12 | > 100 | > 100 | > 100 | > 100 | – | > 100 | > 100 | – | TGI (RXF-631 renal): > 100 µM
NNc1c(C(N)=O)c2c(N)ncnc2n1C1OC(CO)C(O)C1O (stereo unspecified) | – | – | – | – | – | – | – | 0.144 | –
CC(=O)CCC1(c2ccccc2)OC(=O)C(C#N)=C1c1ccccc1 (stereo unspecified) | > 100 | > 100 | > 100 | > 100 | > 100 µM | – | > 100 | – | TGI (RXF-631 renal): > 100 µM
CC1[C@@]2(CCC(C)(C)O2)O[C@@H]2C=C3C4CCC5Cc6nc7c(nc6C[C@@]5(C)C4C[C@H](O)[C@@]3(C)[C@]12O)CC1CCC2C3=C[C@H]4O[C@@]5(O[C@@](C)(CO)C[C@@H]5O)C(C)[C@@]4(O)[C@]3(C)[C@@H](O)CC2[C@]1(C)C7 (stereo partly specified) | 1.11 | – | 0.0824 | 0.791 | 0.464 µM and 0.312 µM | – | – | – | GI50 (DLD-1 colon): 0.0805 µM; GI50 (DMS 273 small cell lung): < 0.000365 µM; GI50 (M19-MEL melanoma): 0.336 µM; TGI (P388 leukemia): 0.734 µM; TGI (P388/ADR leukemia): 1.16 µM; TGI (RXF-631 renal): 0.213 µM; TGI (SN12K1 renal): 0.395 µM; GI50 (SNB-78 CNS): 0.0015 µM; GI50 (XF 498 CNS): 0.00488 µM
CCCCCCCCCCCCCCCCCc1nc(Cl)nc(Cl)c1Cl | – | – | – | – | – | – | – | > 100 | –
CC(C)c1ccc(O)c(Cc2cc(C(C)C)cc(Cc3cc(C(C)C)ccc3O)c2O)c1 | 4.15 | – | 2.81 | 2.99 | 4.54 µM | – | 2.73 | – | –
OC12CCC3(OC4CCCCO4)c4ccccc4C3C1c1ccccc12 (stereo unspecified) | – | > 100 | > 100 | > 100 | > 100 µM | > 100 | > 100 | – | –
Cc1cc(Cl)ccc1N=C1NC(=O)C(CC(=O)Nc2cccc(Cl)c2)S1 (stereo unspecified) | > 100 | > 100 | > 100 | > 100 | > 100 µM | > 100 | > 100 | – | –
Cc1ccc(C)c2c1C1CCCCC3(OCCCO3)C21O (stereo unspecified) | > 100 | > 100 | > 100 | > 100 | > 100 µM | > 100 | – | – | –
COc1cccc(/C=C2\N=C(c3ccccc3)OC2=O)c1 | – | – | – | – | – | – | – | > 100 | –
C=C1C(=O)OC2CC(C)C(/C=C/C(C)=O)=CCC12 (stereo unspecified) | – | – | – | – | – | – | – | > 100 | –
Nc1cccc(-c2cc(=O)c3cc4c(cc3[nH]2)OCO4)c1 | – | 3.83 | > 100 | > 100 | > 100 µM | > 100 | > 100 | 0.474 | –
CC1(C)CC(O)CC(C)(C)N1O | – | – | – | – | – | – | – | > 100 | –
N#C/C(=C\c1ccc(O)cc1)C(N)=O | > 100 | > 100 | > 100 | > 100 | > 100 µM | – | > 100 | – | TGI (P388 leukemia): > 100 µM; TGI (P388/ADR leukemia): > 100 µM; TGI (RXF-631 renal): > 100 µM; TGI (SN12K1 renal): > 100 µM
